Consider 35 compounds from ChEMBL document CHEMBL1155858, “Derivatives of (3S)-N-(biphenyl-2-ylmethyl)pyrrolidin-3-amine as selective noradrenaline reuptake inhibitors: Reducing P-gp mediated efflux by modulation of H-bond acceptor capacity” (Bioorg Med Chem Lett, 2008).

Series [1] deals with Sodium-dependent serotonin transporter (Homo sapiens, UniProt P31645). In words: Inhibition of [3H]citalopram uptake at human 5HTT expressed in HEK293 cells by SPA. Type of series: cell-based.
Series [2] addresses Sodium-dependent noradrenaline transporter (Homo sapiens, UniProt P23975). Description: Inhibition of [3H]nisoxetine reuptake at human NET expressed in HEK293 cells by SPA. It is filed as cell-based.
The nature of series [3]: Metabolic stability in human liver microsomes assessed as intrinsic clearance. Type of series: ADME, Microsome.
Series [4] concerns the target Sodium-dependent dopamine transporter (Homo sapiens, UniProt Q01959). In words: Inhibition of [3H]dopamine reuptake at human DAT expressed in HEK293 cells by SPA. Type of series: cell-based.
The nature of series [5]: Apparent permeability from basolateral to apical side of the MDCK cells expressing MDR1 gene. The note with it: dog. It is filed as ADME, cell-based, Canis lupus familiaris.
A short description of series [6]: Ratio of permeability from basolateral to apical side over apical to basolateral side of MDCK cells expressing MDR1 gene. The note with it: dog.
A further series addresses Cytochrome P450 2D6 (Homo sapiens, UniProt P10635). Description: Inhibition of CYP2D6. It is filed as ADME.
Series [7] in a line: Apparent permeability from apical to basolateral side of the MDCK cells expressing MDR1 gene. The following applies: dog. It is filed as ADME, cell-based, Canis lupus familiaris.
The nature of series [8]: Inhibition of L type calcium channel.
The target in series [9] is Voltage-gated inwardly rectifying potassium channel KCNH2 (Homo sapiens, UniProt Q12809). In words: Displacement of [3H]dofetilide from human ERG channel.
Voltage-gated inwardly rectifying potassium channel KCNH2, sequence (Q12809 whole entry): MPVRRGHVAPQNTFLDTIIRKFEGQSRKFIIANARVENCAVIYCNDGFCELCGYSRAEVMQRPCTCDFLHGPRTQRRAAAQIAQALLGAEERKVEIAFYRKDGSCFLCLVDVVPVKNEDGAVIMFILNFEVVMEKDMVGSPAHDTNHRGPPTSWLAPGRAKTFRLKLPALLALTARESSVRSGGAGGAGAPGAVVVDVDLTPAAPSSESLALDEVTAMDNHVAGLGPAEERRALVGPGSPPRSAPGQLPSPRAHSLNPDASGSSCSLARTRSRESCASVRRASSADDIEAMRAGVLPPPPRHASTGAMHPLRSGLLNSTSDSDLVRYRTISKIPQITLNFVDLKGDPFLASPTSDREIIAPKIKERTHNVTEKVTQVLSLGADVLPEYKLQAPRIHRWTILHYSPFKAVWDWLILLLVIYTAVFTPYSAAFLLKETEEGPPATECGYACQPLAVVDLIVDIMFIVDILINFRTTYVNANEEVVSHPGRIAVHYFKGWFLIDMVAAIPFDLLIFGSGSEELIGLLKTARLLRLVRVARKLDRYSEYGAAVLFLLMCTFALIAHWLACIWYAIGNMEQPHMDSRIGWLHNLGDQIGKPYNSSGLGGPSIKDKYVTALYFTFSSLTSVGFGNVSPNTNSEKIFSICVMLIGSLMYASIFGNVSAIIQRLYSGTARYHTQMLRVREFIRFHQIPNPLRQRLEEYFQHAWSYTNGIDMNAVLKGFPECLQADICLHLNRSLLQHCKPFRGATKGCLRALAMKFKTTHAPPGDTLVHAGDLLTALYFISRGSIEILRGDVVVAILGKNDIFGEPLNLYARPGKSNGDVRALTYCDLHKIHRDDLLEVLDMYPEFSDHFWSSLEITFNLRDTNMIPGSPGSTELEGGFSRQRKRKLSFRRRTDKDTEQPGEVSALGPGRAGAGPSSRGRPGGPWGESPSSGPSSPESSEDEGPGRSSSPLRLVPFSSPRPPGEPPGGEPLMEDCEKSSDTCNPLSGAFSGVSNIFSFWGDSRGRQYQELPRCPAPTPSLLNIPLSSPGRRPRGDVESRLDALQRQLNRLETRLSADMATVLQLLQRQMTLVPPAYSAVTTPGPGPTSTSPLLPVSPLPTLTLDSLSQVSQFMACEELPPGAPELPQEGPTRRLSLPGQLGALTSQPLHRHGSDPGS
Another series has as its target Cytochrome P450 3A4 (Homo sapiens, UniProt P08684). In words: Inhibition of CYP3A4. It is filed as ADME.
A short description of series [10]: Inhibition of sodium channel site 2.
A further series concerns the target Cytochrome P450 2C9 (Homo sapiens, UniProt P11712). In words: Inhibition of CYP2C9. Type of series: ADME.
Series [11] in a line: Distribution coefficient, log D at pH 7.4. It is filed as physicochemical. The following applies: octanol/water.
The next series concerns the target T1, Cytochrome P450 1A2 (Homo sapiens, UniProt P05177).
T1 sequence (P05177 whole entry): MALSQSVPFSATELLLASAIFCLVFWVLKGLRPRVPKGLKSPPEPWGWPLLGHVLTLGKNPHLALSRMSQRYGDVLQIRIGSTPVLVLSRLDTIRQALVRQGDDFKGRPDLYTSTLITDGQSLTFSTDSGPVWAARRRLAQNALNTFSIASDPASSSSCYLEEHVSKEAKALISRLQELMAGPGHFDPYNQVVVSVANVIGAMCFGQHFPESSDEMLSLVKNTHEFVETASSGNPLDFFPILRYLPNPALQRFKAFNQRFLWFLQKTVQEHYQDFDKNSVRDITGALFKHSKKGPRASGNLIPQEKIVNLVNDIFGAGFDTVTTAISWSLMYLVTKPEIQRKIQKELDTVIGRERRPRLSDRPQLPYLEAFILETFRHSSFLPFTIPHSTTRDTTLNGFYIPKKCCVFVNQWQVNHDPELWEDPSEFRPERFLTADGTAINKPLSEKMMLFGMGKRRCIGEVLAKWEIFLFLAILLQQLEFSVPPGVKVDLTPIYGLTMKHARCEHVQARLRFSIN
Description: Inhibition of CYP1A2. Type of series: ADME.

Series [12] in a line: Dissociation constant, pKa of the compound. It is filed as physicochemical.
The subject of another series is Liver microsomes. Description: Metabolic stability in human liver microsomes. It is filed as ADME, Microsome.
The species named for series [13] is Homo sapiens. In words: Selectivity for human NET over human DAT.
The species named for series [14] is Homo sapiens. Description: Selectivity for human NET over human SERT.
The next series has as its system Hepatocyte. In words: Metabolic stability in human hepatocytes assessed as intrinsic clearance. Type of series: ADME, cell-based, Liver.

A value given as a limit tells only on which side of the number the result lay.

Sodium-dependent dopamine transporter, sequence (Q01959 whole entry): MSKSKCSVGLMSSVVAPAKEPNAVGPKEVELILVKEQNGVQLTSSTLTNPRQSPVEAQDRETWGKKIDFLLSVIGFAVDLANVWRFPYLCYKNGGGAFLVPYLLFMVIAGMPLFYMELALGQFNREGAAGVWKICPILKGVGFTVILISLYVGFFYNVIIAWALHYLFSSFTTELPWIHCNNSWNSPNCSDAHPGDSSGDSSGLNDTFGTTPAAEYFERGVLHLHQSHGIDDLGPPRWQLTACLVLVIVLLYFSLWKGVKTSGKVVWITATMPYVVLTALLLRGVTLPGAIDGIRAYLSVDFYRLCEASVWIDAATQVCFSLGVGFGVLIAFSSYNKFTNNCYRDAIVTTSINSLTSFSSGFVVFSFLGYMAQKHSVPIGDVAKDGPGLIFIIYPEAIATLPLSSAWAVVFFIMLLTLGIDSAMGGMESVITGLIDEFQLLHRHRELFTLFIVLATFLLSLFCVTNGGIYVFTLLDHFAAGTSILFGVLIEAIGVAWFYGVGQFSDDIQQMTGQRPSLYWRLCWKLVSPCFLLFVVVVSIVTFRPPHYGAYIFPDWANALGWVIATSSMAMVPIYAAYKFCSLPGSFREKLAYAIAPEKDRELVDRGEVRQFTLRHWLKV
Cytochrome P450 2D6, sequence (P10635 whole entry): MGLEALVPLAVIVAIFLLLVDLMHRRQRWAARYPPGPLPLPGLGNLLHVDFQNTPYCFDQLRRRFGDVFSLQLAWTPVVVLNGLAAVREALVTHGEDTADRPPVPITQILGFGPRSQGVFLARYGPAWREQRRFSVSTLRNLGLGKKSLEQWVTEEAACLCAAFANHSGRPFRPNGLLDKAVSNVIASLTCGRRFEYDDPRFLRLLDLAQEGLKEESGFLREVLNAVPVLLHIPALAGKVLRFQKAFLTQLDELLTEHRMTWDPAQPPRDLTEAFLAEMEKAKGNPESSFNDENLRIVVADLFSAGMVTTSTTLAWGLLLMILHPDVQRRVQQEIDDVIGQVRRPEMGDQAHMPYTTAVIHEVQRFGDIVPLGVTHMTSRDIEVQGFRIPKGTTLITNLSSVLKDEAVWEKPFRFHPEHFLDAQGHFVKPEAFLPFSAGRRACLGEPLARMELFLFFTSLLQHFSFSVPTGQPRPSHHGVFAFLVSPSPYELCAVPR
Sodium-dependent noradrenaline transporter, sequence (P23975 whole entry): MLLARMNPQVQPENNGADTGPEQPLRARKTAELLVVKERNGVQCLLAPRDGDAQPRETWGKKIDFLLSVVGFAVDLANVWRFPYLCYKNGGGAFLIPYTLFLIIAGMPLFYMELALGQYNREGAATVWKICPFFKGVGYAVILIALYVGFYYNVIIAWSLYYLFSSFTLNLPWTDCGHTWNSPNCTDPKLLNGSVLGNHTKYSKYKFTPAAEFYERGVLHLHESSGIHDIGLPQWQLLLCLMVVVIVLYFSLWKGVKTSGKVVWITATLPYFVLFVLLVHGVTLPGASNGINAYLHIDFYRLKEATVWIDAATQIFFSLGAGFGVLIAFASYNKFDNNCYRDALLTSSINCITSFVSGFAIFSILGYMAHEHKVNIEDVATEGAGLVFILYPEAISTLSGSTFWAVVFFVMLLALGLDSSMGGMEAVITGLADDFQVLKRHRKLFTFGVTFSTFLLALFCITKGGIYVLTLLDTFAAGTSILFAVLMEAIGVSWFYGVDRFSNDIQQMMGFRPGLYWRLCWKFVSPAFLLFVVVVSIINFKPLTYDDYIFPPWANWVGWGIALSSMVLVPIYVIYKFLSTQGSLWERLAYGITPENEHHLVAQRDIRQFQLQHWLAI
Sodium-dependent serotonin transporter, sequence (P31645 whole entry): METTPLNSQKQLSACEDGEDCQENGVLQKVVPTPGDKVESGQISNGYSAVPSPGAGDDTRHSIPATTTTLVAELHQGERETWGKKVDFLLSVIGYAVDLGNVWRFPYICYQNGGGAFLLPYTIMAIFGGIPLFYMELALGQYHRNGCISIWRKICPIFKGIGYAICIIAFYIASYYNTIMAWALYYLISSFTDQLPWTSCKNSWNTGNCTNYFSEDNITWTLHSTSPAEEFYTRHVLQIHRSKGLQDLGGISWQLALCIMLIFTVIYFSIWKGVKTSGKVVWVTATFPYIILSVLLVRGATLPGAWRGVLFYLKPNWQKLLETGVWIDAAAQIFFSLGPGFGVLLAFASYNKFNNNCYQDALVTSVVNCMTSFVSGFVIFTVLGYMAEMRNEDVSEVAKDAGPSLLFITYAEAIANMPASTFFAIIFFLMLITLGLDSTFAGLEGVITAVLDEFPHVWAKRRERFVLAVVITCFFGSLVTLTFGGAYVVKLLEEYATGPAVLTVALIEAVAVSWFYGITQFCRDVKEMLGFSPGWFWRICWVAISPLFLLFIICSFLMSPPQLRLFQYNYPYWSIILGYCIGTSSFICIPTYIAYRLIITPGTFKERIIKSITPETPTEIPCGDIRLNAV
Cytochrome P450 2C9, sequence (P11712 whole entry): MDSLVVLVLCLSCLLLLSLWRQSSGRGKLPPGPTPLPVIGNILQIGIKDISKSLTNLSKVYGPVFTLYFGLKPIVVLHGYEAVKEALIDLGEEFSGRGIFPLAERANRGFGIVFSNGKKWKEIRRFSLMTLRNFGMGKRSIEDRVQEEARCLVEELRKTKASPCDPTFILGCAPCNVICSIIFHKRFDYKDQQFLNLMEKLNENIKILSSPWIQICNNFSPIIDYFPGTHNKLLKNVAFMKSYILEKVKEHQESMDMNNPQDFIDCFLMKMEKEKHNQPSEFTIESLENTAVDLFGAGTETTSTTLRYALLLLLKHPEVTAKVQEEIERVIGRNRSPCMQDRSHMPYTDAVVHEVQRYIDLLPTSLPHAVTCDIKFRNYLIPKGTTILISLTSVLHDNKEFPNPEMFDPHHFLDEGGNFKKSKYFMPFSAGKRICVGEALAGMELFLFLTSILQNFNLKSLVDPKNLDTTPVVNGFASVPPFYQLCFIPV
Cytochrome P450 3A4, sequence (P08684 whole entry): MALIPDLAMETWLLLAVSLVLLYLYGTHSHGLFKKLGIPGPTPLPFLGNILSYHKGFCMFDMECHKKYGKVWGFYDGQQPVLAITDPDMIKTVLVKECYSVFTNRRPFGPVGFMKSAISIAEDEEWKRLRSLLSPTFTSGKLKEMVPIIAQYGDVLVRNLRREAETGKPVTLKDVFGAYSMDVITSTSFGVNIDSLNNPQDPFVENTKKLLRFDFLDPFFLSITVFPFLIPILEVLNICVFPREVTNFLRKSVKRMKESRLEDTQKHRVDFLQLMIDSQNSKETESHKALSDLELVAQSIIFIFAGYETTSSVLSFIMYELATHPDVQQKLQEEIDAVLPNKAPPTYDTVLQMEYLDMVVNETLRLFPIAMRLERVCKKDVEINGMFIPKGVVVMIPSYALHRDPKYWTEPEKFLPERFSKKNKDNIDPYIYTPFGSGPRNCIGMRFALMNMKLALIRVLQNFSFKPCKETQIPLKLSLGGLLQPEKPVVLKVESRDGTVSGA

As to `CCOC(=O)N(Cc1ccccc1SC)[C@H]1CCNC1`, the Ki in series [1] came out at 353 nM; in series [2] it was 89 nM.
On to `CC(C)C(=O)N(Cc1ccccc1Oc1ccccc1)[C@H]1CCNC1`, for which, in series [3], the microsomal CLint came out at 10 µL/min/mg. In addition, the inhibitory constant (Ki) in [1] is 229 nM; in series [2], 34 nM; in series [4], 3500 nM.
Take `O=CN(Cc1ccccc1-c1ccccc1)[C@H]1CCNC1`: the Ki in [1] worked out at 869 nM; in [2], 118 nM; in [4] it was 2130 nM.
As for `c1ccc(-c2ccccc2CN[C@H]2CCNC2)cc1`, the figures for the Ki in series [1], in series [2] and in series [4] were 1070 nM, 271 nM and 2470 nM, respectively.
Taken in the same sequence, the figures for `CCOC(=O)N(Cc1ccccc1C(C)C)[C@H]1CCNC1` were 764 nM, 49 nM and 3340 nM.
Turning to `CC(C)C(=O)N(Cc1ccccc1C(F)(F)F)[C@H]1CCNC1`, in series [3], the microsomal CLint is under 7 µL/min/mg. The figures for the Ki in series [1] and in series [2] were 133 nM and 63 nM, respectively.
Consider `CSc1ccccc1CN([C@H]1CCNC1)S(C)(=O)=O`, for which the microsomal CLint in series [3] was under 7 µL/min/mg. Moreover, the values for the Ki in [1], in [2] and in [4] were 1250 nM, 86 nM and 2950 nM, respectively.
In the case of `CN(C)S(=O)(=O)N(Cc1ccccc1-c1ccccc1)[C@H]1CCNC1`, the Papp B→A in series [5] is 68 ×10⁻⁶ cm/s. Also, the efflux ratio in [6] worked out at 4. For the same compound, the microsomal CLint in series [3] came to 16 µL/min/mg. Also, the Ki in series [1] is 3330 nM; in [2], 8 nM; in series [4], 2690 nM. Further, the IC50 on Cytochrome P450 2D6 came out at 840 nM. Besides, in series [7], the Papp A→B stood at 17 ×10⁻⁶ cm/s.
As to `CCS(=O)(=O)N(Cc1ccccc1-c1ccccc1)[C@H]1CCN(C)C1`, the Ki is over 10000 nM in series [1] and 466 nM in [2].
For `CCCC(=O)N(Cc1ccccc1-c1ccccc1)[C@H]1CCNC1`, the microsomal CLint in [3] is under 7 µL/min/mg. Further, the Ki was 730 nM in series [1], 25 nM in series [2] and 2610 nM in [4].
For the compound `CC(=O)N(Cc1ccccc1-c1ccccc1)[C@H]1CCNC1`, the microsomal CLint in series [3] was under 7 µL/min/mg. The Ki in [1] was 5810 nM; in series [2] it was 124 nM.
With `CC(C)OC(=O)N(Cc1ccccc1-c1ccccc1)[C@H]1CCNC1`, the Ki was 787 nM in series [1], 14 nM in series [2] and 2010 nM in [4].
As to `CCOC(=O)N(Cc1ccccc1C(F)(F)F)[C@H]1CCNC1`, the Ki was 427 nM in series [1], 46 nM in series [2] and 3210 nM in series [4].
As to `CS(=O)(=O)N(Cc1ccccc1-c1ccccc1)[C@@H]1CCNC1`, the microsomal CLint in [3] was under 7 µL/min/mg. Moreover, the Ki was 5350 nM in series [1], 29 nM in series [2] and 2390 nM in [4]. This compound also gave an IC50 against Cytochrome P450 2D6 of 5360 nM.
As to `CCC(=O)N(Cc1ccccc1-c1ccccc1)[C@H]1CCNC1`, the microsomal CLint in [3] is under 7 µL/min/mg. The Ki in series [1] was 2680 nM; in series [2], 30 nM.
On to `CCS(=O)(=O)N(Cc1ccccc1-c1ccccc1)[C@H]1CCNC1`, for which, in series [3], the microsomal CLint is under 7 µL/min/mg. Further, the Ki in series [1] is 5620 nM; in [2] it was 5 nM; in series [4], 2760 nM. For the same compound, on Cytochrome P450 2D6, the IC50 turned out to be 1890 nM.
Take `CC(C)C(=O)N(Cc1ccccc1-c1ccccc1)[C@H]1CCNC1`: the Papp B→A in series [5] was 68 ×10⁻⁶ cm/s. Besides, in [6], the efflux ratio was 6.1. In addition, the Ki in [8] is over 10000 nM; in series [9], 2840 nM; in series [1], 960 nM; in series [2], 6 nM; in series [10] it was 1200 nM; in series [4], 3740 nM. Besides, the microsomal CLint in series [3] is under 7 µL/min/mg. Besides, the IC50 is over 3 µM against Cytochrome P450 3A4, 1860 nM against Cytochrome P450 2D6, over 3 µM at Cytochrome P450 2C9 and over 3 µM at Cytochrome P450 1A2. For the same compound, in series [7], the Papp A→B came to 11 ×10⁻⁶ cm/s. In series [11], this compound gave a logD of 0.8. For the same compound, the pKa in [12] was determined as 9.4.
Regarding `c1ccc(-c2ccccc2CN(C2CCOCC2)[C@H]2CCNC2)cc1`, the t1/2 in the series on Liver microsomes is over 120 min.
Turning to `CN(C)C(=O)N(Cc1ccccc1-c1ccccc1)[C@H]1CCNC1`, the Ki in series [1] was found to be 5010 nM; in series [2], 53 nM; in [4], 2970 nM.
Consider `CS(=O)(=O)N(Cc1ccccc1C(F)(F)F)[C@H]1CCNC1`, for which the results for the Ki in series [1], in series [2] and in series [4] were 2890 nM, 86 nM and 2890 nM, respectively.
On to `CSc1ccccc1CN(C(=O)C(C)C)[C@H]1CCNC1`, for which the Ki in [1] amounted to 50 nM; in series [2], 65 nM; in series [4] it was 1380 nM.
Take `CC(C)S(=O)(=O)N(Cc1ccccc1-c1ccccc1)[C@H]1CCNC1`: the microsomal CLint in [3] was found to be 20 µL/min/mg. Also, the Ki is 4690 nM in [1], 10 nM in series [2] and 2700 nM in series [4]. The IC50 at Cytochrome P450 2D6 came out at 350 nM.
Taken in the same sequence, the figures for `CCCS(=O)(=O)N(Cc1ccccc1-c1ccccc1)[C@H]1CCNC1` were 12 µL/min/mg, 5680 nM, 7 nM, 2070 nM and 185 nM.
Turning to `CS(=O)(=O)N(Cc1ccccc1-c1ccccc1)[C@H]1CCNC1`, the apparent permeability from basolateral to apical (Papp B→A) in series [5] is 51 ×10⁻⁶ cm/s. Also, the efflux ratio in series [6] was 5.1. Also, the Ki in series [8] is 1900 nM; in [9], over 2700 nM; in series [1] it was 4120 nM; in series [2] it was 5 nM; in series [10] it was 1900 nM; in [4], 2670 nM. Further, the microsomal CLint in [3] was 7 µL/min/mg. The Ratio Ki in the series filed under Homo sapiens [13] and in the series filed under Homo sapiens [14] was over 100 each time. Moreover, the IC50 at Cytochrome P450 3A4 is over 3 µM; against Cytochrome P450 2D6, 3100 nM; on Cytochrome P450 2C9, over 3 µM; on Cytochrome P450 1A2, over 3 µM. For the same compound, the Papp A→B in series [7] amounted to 10 ×10⁻⁶ cm/s. The logD in [11] turned out to be 0.6. The compound also showed a pKa in series [12] of 8.9. Also, the CL in the series with Hepatocyte is under 5 µL/min/mg.
For `O=C(N1CCCC1)N(Cc1ccccc1-c1ccccc1)[C@H]1CCNC1`, the Papp B→A in series [5] turned out to be 53 ×10⁻⁶ cm/s. Besides, the efflux ratio in series [6] was 26. Also, the Ki in series [2] is 27 nM; in series [4], 4190 nM. For the same compound, in series [7], the Papp A→B was 2 ×10⁻⁶ cm/s.
As to `CC(C)CC(=O)N(Cc1ccccc1-c1ccccc1)[C@H]1CCNC1`, the microsomal CLint in series [3] turned out to be 9 µL/min/mg. The Ki in [1] was determined as 415 nM; in [2] it was 30 nM.
As for `O=S(=O)(N(Cc1ccccc1-c1ccccc1)[C@H]1CCNC1)C(F)(F)F`, the Ki in [1] stood at 5280 nM; in series [2], 30 nM; in series [4] it was 2080 nM.
The matching figures for `CS(=O)(=O)N(Cc1ccccc1Oc1ccccc1)[C@H]1CCNC1`: 2700 nM, 96 nM and 2550 nM.
Taken in the same sequence, the figures for `CC(C)C(=O)N(Cc1ccccc1C1CC1)[C@H]1CCNC1` were 124 nM, 74 nM and 2920 nM.
Take `Clc1cccc(CN(C2CCOCC2)[C@H]2CCNC2)c1Cl`: the t1/2 in the series with Liver microsomes turned out to be 100 min.
Take `CCOC(=O)N(Cc1ccccc1Oc1ccccc1)[C@H]1CCNC1`: the microsomal CLint in series [3] turned out to be 21 µL/min/mg. In addition, the Ki in [1] is 444 nM; in [2], 23 nM; in series [4] it was 1900 nM. This compound also yielded an IC50 against Cytochrome P450 2D6 of 420 nM.
The matching figures for `CCOC(=O)N(Cc1ccccc1-c1ccccc1)[C@@H]1CCNC1`: under 7 µL/min/mg, 410 nM, 16 nM, 2910 nM and 350 nM.
For the compound `CC(C)C(=O)N(Cc1ccccc1C(C)C)[C@H]1CCNC1`, the microsomal CLint in series [3] is under 7 µL/min/mg. Moreover, the figures for the Ki in [1], in series [2] and in [4] were 544 nM, 70 nM and 3410 nM, respectively.
With `CN1CC[C@H](N(Cc2ccccc2-c2ccccc2)S(C)(=O)=O)C1`, the Ki in [1] is over 10000 nM; in series [2], 748 nM.
In the case of `COC(=O)N(Cc1ccccc1-c1ccccc1)[C@H]1CCNC1`, in [3], the microsomal CLint was under 7 µL/min/mg. For the same compound, the Ki turned out to be 4440 nM in series [1], 18 nM in series [2] and 3190 nM in series [4]. For the same compound, the IC50 against Cytochrome P450 2D6 was 10600 nM.
